Data published in publication PMC3914206.

What was measured:
Assay type in all cases: binding
Design in all cases: KINOMEscan: ABL1(F317L)-phosphorylated / KINOMEscan: ABL1(H396P)-nonphosphorylated / KINOMEscan: ABL1(H396P)-phosphorylated / KINOMEscan: ABL1(M351T)-phosphorylated / KINOMEscan: ABL1(T315I)-phosphorylated / KINOMEscan: ABL1-nonphosphorylated / KINOMEscan: ABL1-phosphorylated / KINOMEscan: ACVR2A / KINOMEscan: ACVR2B / KINOMEscan: ADCK3 / KINOMEscan: ADCK4 / KINOMEscan: AKT1 / KINOMEscan: AKT3 / KINOMEscan: ALK / KINOMEscan: ARK5 / KINOMEscan: AURKA / KINOMEscan: AURKC / KINOMEscan: BIKE / KINOMEscan: BMPR1A / KINOMEscan: BMPR1B / KINOMEscan: BMX / KINOMEscan: BRK / KINOMEscan: BRSK1 / KINOMEscan: BRSK2 / KINOMEscan: CAMK1 / KINOMEscan: CAMK1D / KINOMEscan: CAMK1G / KINOMEscan: CAMK2A / KINOMEscan: CAMK2B / KINOMEscan: AAK1 / KINOMEscan: CAMK2D / KINOMEscan: CAMK2G / KINOMEscan: ABL1(F317I)-nonphosphorylated / KINOMEscan: ABL1(F317I)-phosphorylated / KINOMEscan: ABL1(F317L)-nonphosphorylated: unit: % Ctrl
[1] = target: T1, panel of 442 kinases (Homo sapiens, UniProt O60285); conditions: Compound Concentration 10 µM
T1 construct: purchased KINOMEscan
T1 sequence (O60285 1-661): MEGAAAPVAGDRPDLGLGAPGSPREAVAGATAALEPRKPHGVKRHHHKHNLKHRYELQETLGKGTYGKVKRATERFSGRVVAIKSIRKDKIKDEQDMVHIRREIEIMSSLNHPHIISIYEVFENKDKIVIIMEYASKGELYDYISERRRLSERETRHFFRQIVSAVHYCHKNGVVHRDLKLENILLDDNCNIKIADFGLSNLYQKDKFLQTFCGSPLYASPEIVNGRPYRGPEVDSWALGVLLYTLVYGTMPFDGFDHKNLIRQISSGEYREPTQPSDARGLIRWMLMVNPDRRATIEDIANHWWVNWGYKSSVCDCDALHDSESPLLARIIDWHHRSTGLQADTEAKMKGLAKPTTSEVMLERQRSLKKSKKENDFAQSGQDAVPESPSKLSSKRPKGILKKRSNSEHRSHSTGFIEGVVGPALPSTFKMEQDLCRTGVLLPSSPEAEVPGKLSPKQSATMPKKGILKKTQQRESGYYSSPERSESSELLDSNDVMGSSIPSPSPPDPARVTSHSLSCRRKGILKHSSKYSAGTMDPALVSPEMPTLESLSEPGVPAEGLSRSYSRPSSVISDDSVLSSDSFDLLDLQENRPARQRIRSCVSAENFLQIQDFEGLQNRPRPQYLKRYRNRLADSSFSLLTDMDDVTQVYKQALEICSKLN
From the text: (§1) We assessed the selectivity of members of this scaffold using the KINOMEscan methodology across a near comprehensive panel of 442 kinases [[18,27]].

[2] = target: T2, panel of 442 kinases (Homo sapiens, UniProt P07949, M918T); conditions: Compound Concentration 10 µM
T2 construct: purchased KINOMEscan
From the text: as §1

[3] = target: T3, panel of 442 kinases (Homo sapiens, UniProt Q8TDR2); conditions: kinase STK35; compound concentration 10 µM
T3 construct: purchased KINOMEscan
From the text: as §1

T3 sequence (Q8TDR2 whole entry): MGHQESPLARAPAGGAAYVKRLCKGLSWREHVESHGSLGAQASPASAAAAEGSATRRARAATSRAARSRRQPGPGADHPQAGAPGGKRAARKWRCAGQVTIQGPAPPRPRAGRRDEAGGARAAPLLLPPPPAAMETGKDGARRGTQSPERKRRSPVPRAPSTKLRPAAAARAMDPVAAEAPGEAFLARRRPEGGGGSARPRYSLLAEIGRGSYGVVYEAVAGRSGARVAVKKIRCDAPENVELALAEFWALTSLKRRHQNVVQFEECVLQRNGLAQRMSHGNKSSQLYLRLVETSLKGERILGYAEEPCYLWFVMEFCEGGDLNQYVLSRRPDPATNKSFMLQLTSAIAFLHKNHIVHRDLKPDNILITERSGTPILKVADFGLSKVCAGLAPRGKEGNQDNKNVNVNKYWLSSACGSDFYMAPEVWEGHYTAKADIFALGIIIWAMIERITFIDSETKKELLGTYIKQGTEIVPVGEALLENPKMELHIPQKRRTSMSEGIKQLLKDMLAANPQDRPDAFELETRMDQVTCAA
T2 sequence (P07949 29-1114 M918T): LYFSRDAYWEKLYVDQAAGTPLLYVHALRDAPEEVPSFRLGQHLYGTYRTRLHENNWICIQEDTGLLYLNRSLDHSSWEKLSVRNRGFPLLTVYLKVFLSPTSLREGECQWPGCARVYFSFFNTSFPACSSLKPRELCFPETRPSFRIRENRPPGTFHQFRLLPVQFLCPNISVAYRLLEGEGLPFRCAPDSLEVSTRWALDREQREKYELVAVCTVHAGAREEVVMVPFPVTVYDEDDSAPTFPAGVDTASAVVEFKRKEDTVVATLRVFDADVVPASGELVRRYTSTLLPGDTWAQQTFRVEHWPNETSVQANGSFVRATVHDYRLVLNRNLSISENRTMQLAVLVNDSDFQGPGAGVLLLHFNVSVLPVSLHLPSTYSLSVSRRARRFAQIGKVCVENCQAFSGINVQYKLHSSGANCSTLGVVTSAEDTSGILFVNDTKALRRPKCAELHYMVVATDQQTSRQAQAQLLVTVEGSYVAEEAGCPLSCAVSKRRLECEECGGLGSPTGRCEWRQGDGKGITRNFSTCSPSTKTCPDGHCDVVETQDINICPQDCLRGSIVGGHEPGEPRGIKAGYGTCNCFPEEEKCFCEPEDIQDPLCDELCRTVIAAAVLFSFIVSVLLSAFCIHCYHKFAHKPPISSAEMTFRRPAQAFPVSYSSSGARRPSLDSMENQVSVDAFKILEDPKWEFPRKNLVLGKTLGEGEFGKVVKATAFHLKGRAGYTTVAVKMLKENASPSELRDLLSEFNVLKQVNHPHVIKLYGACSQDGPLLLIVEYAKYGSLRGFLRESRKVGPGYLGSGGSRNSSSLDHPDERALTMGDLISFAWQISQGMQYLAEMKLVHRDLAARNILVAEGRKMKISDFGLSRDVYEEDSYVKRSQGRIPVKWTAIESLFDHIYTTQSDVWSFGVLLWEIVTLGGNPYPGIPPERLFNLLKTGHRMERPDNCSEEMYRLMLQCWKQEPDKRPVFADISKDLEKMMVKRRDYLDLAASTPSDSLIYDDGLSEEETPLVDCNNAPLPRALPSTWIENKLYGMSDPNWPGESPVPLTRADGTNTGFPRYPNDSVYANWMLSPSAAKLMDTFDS

| Structure (SMILES) | KINOMEscan: ARK5 [1] | KINOMEscan: RET(M918T) [2] | % Ctrl, STK35 [3] [% Ctrl] |
| --- | --- | --- | --- |
| COc1cc(C(=O)N2CCC(N3CCN(C)CC3)CC2)ccc1Nc1ncc2c(n1)N1CCc3cccc(c31)C(=O)N2C [Compound 24] | 68 | 81 | 100 |
| CCOc1cc(C(=O)N2CCC(N3CCN(C)CC3)CC2)ccc1Nc1ncc2c(n1)N(C1CCCC1)c1ccccc1C(=O)N2C [Compound 26] | 100 | 100 | 96 |
| COc1cc(C(=O)N2CCC(N3CCN(C)CC3)CC2)ccc1Nc1ncc2c(n1)N(C1CCCC1)c1ccccc1C(=O)N2C [Compound 25, 11-cyclopentyl-2-((2-methoxy-4-(4-(4-methylpiperazin-1-yl)piperidine-1-carbonyl)phenyl)amino)-5-methyl-5H-benzo[e]pyrimido[5,4-b][1,4]diazepin-6(11H)-one] | 90 | 94 | 100 |
| COc1cc(C(=O)N2CCC(N3CCN(C)CC3)CC2)ccc1Nc1ncc2c(n1)N(C)c1ccccc1C(=O)N2C [15 (LRRK2-IN-1)] | 47 | 100 | 100 |
